The subject of one assay is HL-60 AML cells. Briefly: HL-60 subcutaneous AML xenograft, tumor volume over time. It is filed as in vivo, SCID mice. Particulars: FIG. 2; AZD2811 nanoparticles 50, 25, 12.5 or 6.25 mg/kg iv once weekly, venetoclax 100 mg/kg orally daily, 3 weekly cycles; combination benefit notably at the lowest doses of AZD2811. Here is the method:
HL-60: 1×10^7 HL-60 AML cells in 50% matrigel were implanted subcutaneously on the left flank of adult female SCID mice. Mice were randomised by tumor volume at D7 into groups of 8, with an average tumor volume of 0.2 cm^3 and all dosing was started. AZD2811 nanoparticles were dosed at once weekly with a 20-30 s intravenous infusion at either 50 mg/kg, 25 mg/kg, 12.5 mg/kg and 6.25 mg/kg (100 mg/kg was the maximum tolerated dose in combination with venetoclax (ABT-199) 100 mg/kg; venetoclax was administered orally daily at 100 mg/kg). All drugs were given for 3 weekly cycles. For both models, tumors were measured twice weekly by single operators, and all dosing was performed by randomised cage to minimise systematic bias. For the MOLM-13 orthotopic model, 1×10^6 MOLM-13 cells were injected into the tail vien of adult female NOG mice. After 3 days, mice were randomised by body-weight into groups of 8 and treatment was commenced the following day. AZD2811 nanoparticles were dosed at once weekly with a 20-30 s intravenous infusion at 25 mg/kg (25 mg/kg was the maximum tolerated dose in combination with venetoclax (ABT-199) 100 mg/kg; venetoclax was administered orally daily at 100 mg/kg). […] All drugs were given for 2 weekly cycles, the study endpoint was determined by a welfare scoring table.

The next assay relates to KG1a AML cells. Nature of the assay: KG1a subcutaneous AML xenograft, tumor volume over time. Type of assay: in vivo, SCID mice. Particulars: FIG. 1; AZD2811 nanoparticles 100 mg/kg iv once weekly, venetoclax 100 mg/kg orally daily, 3 weekly cycles. As to the method:
KGa1: 2×10^7 KG1a AML cells in 50% matrigel were implanted subcutaneously on the left flank of adult female SCID mice. Mice were randomised by tumor volume at D7 into groups of 8, with an average tumor volume of 0.2 cm^3 and all dosing was started. AZD2811 nanoparticles were dosed at once weekly with a 20-30 s intravenous infusion at either 100 mg/kg (100 mg/kg was the maximum tolerated dose in combination with venetoclax (ABT-199) 100 mg/kg; venetoclax was administered orally daily at 100 mg/kg). All drugs were given for 3 weekly cycles.
HL-60: 1×10^7 HL-60 AML cells in 50% matrigel were implanted subcutaneously on the left flank of adult female SCID mice. Mice were randomised by tumor volume at D7 into groups of 8, with an average tumor volume of 0.2 cm^3 and all dosing was started. AZD2811 nanoparticles were dosed at once weekly with a 20-30 s intravenous infusion at either 50 mg/kg, 25 mg/kg, 12.5 mg/kg and 6.25 mg/kg (100 mg/kg was the maximum tolerated dose in combination with venetoclax (ABT-199) 100 mg/kg; venetoclax was administered orally daily at 100 mg/kg). All drugs were given for 3 weekly cycles. For both models, tumors were measured twice weekly by single operators, and all dosing was performed by randomised cage to minimise systematic bias. […] All drugs were given for 2 weekly cycles, the study endpoint was determined by a welfare scoring table.

One compound from US20210386736A1, “COMBINATION THERAPY FOR TREATING CANCER” (AstraZeneca AB, priority 2018, published 2021) can be followed below.

Structures are written as SMILES.

`CC1(C)CCC(CN2CCN(c3ccc(C(=O)NS(=O)(=O)c4ccc(NCC5CCOCC5)c([N+](=O)[O-])c4)c(Oc4cnc5[nH]ccc5c4)c3)CC2)=C(c2ccc(Cl)cc2)C1` [venetoclax, Venetoclax]: in the assay with HL-60 AML cells, the “efficacy (HL-60 tumor volume over time)” value is reported as “active”. Besides, in the assay on KG1a AML cells, the “efficacy (KG1a tumor volume over time)” value is “modestly efficacious”.
